According to US11130769B2 (Prelude Therapeutics Incorporated, priority 2018, dated 2021):

What was measured:
MCL-1 = MCL-1 (Homo sapiens (Human), UniProt Q07820); experiment: Cell free Mcl-1:Bim affinity assay (fluorescence polarization competition); assay type: binding; settings: 15 nM MCL-1, 5 nM FITC-Bim, 1 hour at room temperature; class symbols; read-out: BIM_Ki
Summary of the method: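 Fluorescence polarization competition: 10-point 3-fold compound dilutions displaced 5 nM FITC-Bim from 15 nM MCL-1 over 1 h at room temperature. Ki was derived from the fitted IC50 using the Nikolovska-Coleska equation, with percent inhibition normalized to DMSO and positive controls.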

H929 cells = experiment: Cell viability assay (H929 10 FBS); assay type: cell-based; settings: Homo sapiens, NCI-H929, 24 hours, read-out: H929_10FBS IC50
Summary of the method: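 ATP-based luminescence (CellTiter-Glo or ATPlite 1 Step, 30-60 min at RT) gauged viability of H929 myeloma cells after 24 h compound treatment at 37 °C. Cells plated at 4000 per well in 10% FBS RPMI 1640 supplemented with pyruvate, HEPES and glucose.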

MCL-1, sequence (Q07820 whole entry): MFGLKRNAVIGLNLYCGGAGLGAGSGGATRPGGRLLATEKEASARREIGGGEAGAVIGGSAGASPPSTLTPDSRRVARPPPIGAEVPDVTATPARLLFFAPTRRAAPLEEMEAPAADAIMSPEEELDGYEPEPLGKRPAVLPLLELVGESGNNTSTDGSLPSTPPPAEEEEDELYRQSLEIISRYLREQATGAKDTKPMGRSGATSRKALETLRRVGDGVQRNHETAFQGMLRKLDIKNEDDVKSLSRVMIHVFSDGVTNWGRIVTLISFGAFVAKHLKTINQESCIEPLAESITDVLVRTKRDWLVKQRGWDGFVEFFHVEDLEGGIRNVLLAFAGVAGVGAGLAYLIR

SMILES	Ki (MCL-1) [nM]	IC50 (H929 cells) [nM]
[2H]C([2H])([2H])N(C(=O)O[C@H]1/C=C/COC(C)(C)C(=O)NS(=O)(=O)c2ccc3c(c2)N(C[C@@H]2CC[C@H]21)C[C@@]1(CCCc2cc(Cl)ccc21)CO3)C([2H])([2H])[2H] [Example 47, [(3R,6R,7S,8E,22S)-6′-Chloro-12,12-dimethyl-13,15,15-trioxo-spiro[11,20-dioxa-thia-1,14-diazatetracyclo[14.7.2.03,6.019,24]pentacosa-8,16,18,24-tetraene-22,1′-tetralin]-7-yl] N,N-bis(trideuteriomethyl)carbamate]	< 1	< 500
CNC(=O)O[C@H]1/C=C/COC(C)(C)C(=O)NS(=O)(=O)c2ccc3c(c2)N(C[C@@H]2CC[C@H]21)C[C@@]1(CCCc2cc(Cl)ccc21)CO3 [Example 50, [(3R,6R,7S,8E,22S)-6′-Chloro-12,12-dimethyl-13,15,15-trioxo-spiro[11,20-dioxa-15-thia-1,14-diazatetracyclo[14.7.2.03,6.019,24]pentacosa-8,16,18,24-tetraene-22,1′-tetralin]-7-yl] N-methylcarbamate]	< 1	< 500
CN(C)C1CN(C(=O)O[C@H]2/C=C/COC(C)(C)C(=O)NS(=O)(=O)c3ccc4c(c3)N(C[C@@H]3CC[C@H]32)C[C@@]2(CCCc3cc(Cl)ccc32)CO4)C1 [Example 52, [(3R,6R,7S,8E,22S)-6′-Chloro-12,12-dimethyl-13,15,15-trioxo-spiro[11,20-dioxa-15-thia-1,14-diazatetracyclo[14.7.2.03,6.019,24]pentacosa-8,16,18,24-tetraene-22,1′-tetralin]-7-yl] 3-(dimethylamino)azetidine-1-carboxylate]	< 1	< 500
CN(C)[C@@H]1CCN(C(=O)O[C@H]2/C=C/COC(C)(C)C(=O)NS(=O)(=O)c3ccc4c(c3)N(C[C@@H]3CC[C@H]32)C[C@@]2(CCCc3cc(Cl)ccc32)CO4)C1 [Example 53, [(3R,6R,7S,8E,22S)-6′-Chloro-12,12-dimethyl-13,15,15-trioxo-spiro[11,20-dioxa-15-thia-1,14-diazatetracyclo[14.7.2.03,6.019,24]pentacosa-8,16,18,24-tetraene-22,1′-tetralin]-7-yl] (3R)-3-(dimethylamino)pyrrolidine-1-carboxylate]	< 1	< 500
CN(C)CCN(C)C(=O)O[C@H]1/C=C/COC(C)(C)C(=O)NS(=O)(=O)c2ccc3c(c2)N(C[C@@H]2CC[C@H]21)C[C@@]1(CCCc2cc(Cl)ccc21)CO3 [Example 55, [(3R,6R,7S,8E,22S)-6′-Chloro-12,12-dimethyl-13,15,15-trioxo-spiro[11,20-dioxa-15-thia-1,14-diazatetracyclo[14.7.2.0˜3,6.0˜19,24]pentacosa-8,16,18,24-tetraene-22,1′-tetralin]-7-yl] N-[2-(dimethylamino)ethyl]-N-methyl-carbamate]	< 1	< 500
COC1CN(C(=O)O[C@H]2/C=C/COC(C)(C)C(=O)NS(=O)(=O)c3ccc4c(c3)N(C[C@@H]3CC[C@H]32)C[C@@]2(CCCc3cc(Cl)ccc32)CO4)C1 [Example 56, [(3R,6R,7S,8E,22S)-6′-Chloro-12,12-dimethyl-13,15,15-trioxo-spiro[11,20-dioxa-15-thia-1,14-diazatetracyclo[14.7.2.03,6.019,24]pentacosa-8,16,18,24-tetraene-22,1′-tetralin]-7-yl] 3-methoxyazetidine-1-carboxylate]	< 1	< 500
CCOC1CN(C(=O)O[C@H]2/C=C/COC(C)(C)C(=O)NS(=O)(=O)c3ccc4c(c3)N(C[C@@H]3CC[C@H]32)C[C@@]2(CCCc3cc(Cl)ccc32)CO4)C1 [Example 57, [(3R,6R,7S,8E,22S)-6′-Chloro-12,12-dimethyl-13,15,15-trioxo-spiro[11,20-dioxa-15-thia-1,14-diazatetracyclo[14.7.2.03,6.019,24]pentacosa-8,16,18,24-tetraene-22,1′-tetralin]-7-yl] 3-ethoxyazetidine-1-carboxylate]	< 1	< 500
CO[C@@H]1CCN(C(=O)O[C@H]2/C=C/COC(C)(C)C(=O)NS(=O)(=O)c3ccc4c(c3)N(C[C@@H]3CC[C@H]32)C[C@@]2(CCCc3cc(Cl)ccc32)CO4)C1 [Example 58, [(3R,6R,7S,8E,22S)-6′-Chloro-12,12-dimethyl-13,15,15-trioxo-spiro[11,20-dioxa-15-thia-1,14-diazatetracyclo[14.7.2.03,6.019,24]pentacosa-8,16,18,24-tetraene-22,1′-tetralin]-7-yl] (3R)-3-methoxypyrrolidine-1-carboxylate]	< 1	< 500
COCCN1CCCN(C(=O)O[C@H]2/C=C/COC(C)(C)C(=O)NS(=O)(=O)c3ccc4c(c3)N(C[C@@H]3CC[C@H]32)C[C@@]2(CCCc3cc(Cl)ccc32)CO4)CC1 [Example 60, [(3R,6R,7S,8E,22S)-6′-Chloro-12,12-dimethyl-13,15,15-trioxo-spiro[11,20-dioxa-15-thia-1,14-diazatetracyclo[14.7.2.03,6.019,24]pentacosa-8,16,18,24-tetraene-22,1′-tetralin]-7-yl] 4-(2-methoxyethyl)-1,4-diazepane-1-carboxylate]	< 1	< 500

The remaining lines, values ahead:

Ki (MCL-1) [nM]	IC50 (H929 cells) [nM]	SMILES
< 1	< 500	[2H]C([2H])([2H])N1C/C=C/[C@H](OC(=O)N(C)C)[C@@H]2CC[C@H]2CN2C[C@@]3(CCCc4cc(Cl)ccc43)COc3ccc(cc32)S(=O)(=O)NC(=O)C1(C)C [Example 45, [(3R,6R,7S,8E,22S)-6′-Chloro-12,12-dimethyl-13,15,15-trioxo-11-(trideuteriomethyl)spiro[20-oxa-15-thia-1,11,14-triazatetracyclo[14.7.2.03,6.019,24]pentacosa-8,16,18,24-tetraene-22,1′-tetralin]-7-yl] N,N-dimethylcarbamate]
< 1	< 500	COCCN1CCN(C(=O)O[C@H]2/C=C/COC(C)(C)C(=O)NS(=O)(=O)c3ccc4c(c3)N(C[C@@H]3CC[C@H]32)C[C@@]2(CCCc3cc(Cl)ccc32)CO4)CC1 [Example 46, [(3R,6R,7S,8E,22S)-6′-Chloro-12,12-dimethyl-13,15,15-trioxo-spiro[11,20-dioxa-15-thia-1,14-diazatetracyclo[14.7.2.03,6.019,24]pentacosa-8,16,18,24-tetraene-22,1′-tetralin]-7-yl] 4-(2-methoxyethyl)piperazine-1-carboxylate]
< 1	< 500	CN(C)C(=O)O[C@H]1/C=C/CN(C)C2(CCC2)C(=O)NS(=O)(=O)c2ccc3c(c2)N(C[C@@H]2CC[C@H]21)C[C@@]1(CCCc2cc(Cl)ccc21)CO3 [Example 48, [(3R,6R,7R,8E,22S)-6′-Chloro-11-methyl-12,12-(1,3-propylene)-13,15,15-trioxo-spiro[20-oxa-15-thia-1,11,14-triazatetracyclo[14.7.2.03,6.019,24]pentacosa-8,16,18,24-tetraene-22,1′-tetralin]-7-yl] N,N-dimethylcarbamate]
< 1	< 500	CC1(C)OC/C=C/[C@H](OC(=O)N2CC(F)(F)C2)[C@@H]2CC[C@H]2CN2C[C@@]3(CCCc4cc(Cl)ccc43)COc3ccc(cc32)S(=O)(=O)NC1=O [Example 49, [(3R,6R,7S,8E,22S)-6′-Chloro-12,12-dimethyl-13,15,15-trioxo-spiro[11,20-dioxa-15-thia-1,14-diazatetracyclo[14.7.2.03,6.019,24]pentacosa-8,16,18,24-tetraene-22,1′-tetralin]-7-yl] 3,3-difluoroazetidine-1-carboxylate]
< 1	< 500	COC1CCN(C(=O)O[C@H]2/C=C/COC(C)(C)C(=O)NS(=O)(=O)c3ccc4c(c3)N(C[C@@H]3CC[C@H]32)C[C@@]2(CCCc3cc(Cl)ccc32)CO4)CC1 [Example 51, [(3R,6R,7S,8E,22S)-6′-Chloro-12,12-dimethyl-13,15,15-trioxo-spiro[11,20-dioxa-15-thia-1,14-diazatetracyclo[14.7.2.03,6.019,24]pentacosa-8,16,18,24-tetraene-22,1′-tetralin]-7-yl] 4-methoxypiperidine-1-carboxylate]
< 1	< 500	CN1CCCN(C(=O)O[C@H]2/C=C/COC(C)(C)C(=O)NS(=O)(=O)c3ccc4c(c3)N(C[C@@H]3CC[C@H]32)C[C@@]2(CCCc3cc(Cl)ccc32)CO4)CC1 [Example 54, [(3R,6R,7S,8E,22S)-6′-Chloro-12,12-dimethyl-13,15,15-trioxo-spiro[11,20-dioxa-15-thia-1,14-diazatetracyclo[14.7.2.03,6.019,24]pentacosa-8,16,18,24-tetraene-22,1′-tetralin]-7-yl] 4-methyl-1,4-diazepane-1-carboxylate]
< 1	< 500	CCO[C@@H]1CCN(C(=O)O[C@H]2/C=C/COC(C)(C)C(=O)NS(=O)(=O)c3ccc4c(c3)N(C[C@@H]3CC[C@H]32)C[C@@]2(CCCc3cc(Cl)ccc32)CO4)C1 [Example 59, [(3R,6R,7S,8E,22S)-6′-Chloro-12,12-dimethyl-13,15,15-trioxo-spiro[11,20-dioxa-15-thia-1,14-diazatetracyclo[14.7.2.03,6.019,24]pentacosa-8,16,18,24-tetraene-22,1′-tetralin]-7-yl] (3R)-3-ethoxypyrrolidine-1-carboxylate]
< 1	< 500	CC1(C)OC/C=C/[C@H](OC(=O)N[C@H]2CCOC2)[C@@H]2CC[C@H]2CN2C[C@@]3(CCCc4cc(Cl)ccc43)COc3ccc(cc32)S(=O)(=O)NC1=O [Example 61, [(3R,6R,7S,8E,22S)-6′-Chloro-12,12-dimethyl-13,15,15-trioxo-spiro[11,20-dioxa-15-thia-1,14-diazatetracyclo[14.7.2.03,6.019,24]pentacosa-8,16,18,24-tetraene-22,1′-tetralin]-7-yl] N-[(3S)-tetrahydrofuran-3-yl]carbamate]
